The results in this text go back to US6989270B1, “Using polyamide nucleic acid oligomers to engender a biological response” (Mayo Foundation for Medical Education and Research, priority 1997, dated 2006).

This data set is described as follows: Gel shift assay measuring PNA oligomer in tissue. Type of data set: in vivo. Here is the method: To confirm the presence and measure the amount of PNA in brain after extracranial administration, a sensitive gel shift assay was developed. This assay involves using a radioactively-labeled oligonucleotide having sequence specificity for a PNA oligomer as a probe to detect that PNA oligomer. Briefly, a sample is prepared and incubated with a probe. If the sample contains a PNA oligomer having sequence specificity for the probe, then the probe can bind that PNA oligomer. This bound form of the probe then can be detected and quantified using gel electrophoresis since a probe bound to a PNA oligomer migrates differently than an unbound probe on a gel.
Brain extracts were prepared from either untreated animals or animals treated intraperitoneally with 10 mg/kg of the AS-NTR1-PNA oligomer. For the treated animals, brain tissue was collected 8 hours post treatment. To prepare brain extracts, flash frozen brain tissue (minus the PAG and hypothalamus) were homogenized in 1 mM Tris (pH 4.0), 0.1 mM EDTA at a concentration of 1.5 ml/g wet weight of tissue. This acidic condition can protonate cytosine bases as well as the N-terminal amino group of the PNA oligomer, which presumably increases the solubility of the PNA oligomer and allows the PNA oligomer to be found in an aqueous phase during the later extraction step. Samples were boiled for five minutes. This boiling step can free the bound PNA oligomer from its target sequence, and inactivate nucleases that may interfere with the integrity of the DNA oligonucleotide probe. Then, the samples were spun two to three times at 35,600×g for 10 minutes each to pellet insoluble material and the supernatants collected. Supernatants were extracted with 10 volumes of CHCl3:MeOH (2:1 v/v) to remove glycolipids that may interfere with gel electrophoresis, and spun briefly at 1,000×g to separate phases. For the standard curves using known amounts of a PNA oligomer, the PNA oligomer was added to the supernatant before the CHCl3:MeOH extraction. The supernatants were collected in a fresh tube, lyophilized, and resuspended in 30 to 40 μl of water.
Once prepared, approximately 400 pg of probe was added to each 30 to 40 μl sample. To prepare the probe, a DNA oligonucleotide (Gibco BRL, Gaithersburg, Md.) complementary to the AS-NTR1-PNA oligomer was end-labeled using T4 Polynucleotide Kinase (Gibco BRL) and [Gamma-^32P]ATP or [Gamma-^33P]ATP (New England Nuclear, Boston, Mass.) according to manufacturer's instructions. […]
After adding the probe, the samples were incubated at room temperature for 20 minutes. […] Signal was detected using a Storm860 Phosphoimager (Molecular Dynamics, Sunnyvale, Calif.) and data were analyzed using ImageQuant Software (Molecular Dynamics, Sunnyvale, Calif.). […]
Background: In EMSA bound probe runs differently from free probe, usually more slowly.

In the case of “NTR1-PNA: 12-mer antisense PNA oligomer to rat NTR1 coding region, 5′-CATTGCTCAAAC-3′ (SEQ ID NO: 1) (all peptide nucleic acid (PNA))”, the “integrity of PNA oligomer recovered from brain (gel mobility shift)” value (8 hours after i.p. 10 mg/kg) is on record as “unaltered”. In addition, the “presence of PNA oligomer in brain extracts” value (8 hours after i.p. 10 mg/kg, perfused and non-perfused animals) is listed as “detected in brain extracts prepared from treated animals”. The “concentration of PNA oligomer within brain” value (8 hours after intraperitoneal 10 mg/kg, corrected for recovery) worked out at 2.4±0.3 ng/whole brain. The “presence of PNA oligomer in brain, heart, kidney, liver, spleen and blood” value (tissues 2 hours after i.p. 10 mg/kg (perfused), blood 5 minutes after i.v. 10 mg/kg) is “detected in each tissue”.
